Experiments:
human FADS1 = biological target: T1, human FADS1 (Homo sapiens, UniProt O60427); assay: In vitro FADS1 activity assay (HEK 293 cells with FADS1 BacMam, 13C5-DGLA substrate); type: cell-based; conditions: in vitro human FADS1 activity assay
T1 construct: expressed in transfected cells; host or cells: HEK 293 cells transduced with FADS1 BacMam (MOI 25)
Procedure: HEK 293 cells in Dulbecco's Modified Eagle's medium (DMEM), 10% fetal bovine serum (FBS), 1× penicillin-streptomycin-glutamine (PSG) were mixed with FADS1 BacMam or FADS2 BacMam reagents at multiplicity of infection (MOI) ratio of 25 and plated in a in 96-well poly-D-lysine-coated plate. Plates were incubated in a 37° C., 5% CO2 for 24 hours. Cells were washed with DPBS and cells were incubated with 90 ml of compound dilution in DPBS at 5% CO2, 37° C. for 20 minutes. Ten L of the substrate, ^13C5-DGLA (FADS1), or 13C-LA (FADS2) diluted in DPBS were added to the cells and incubated at 5% CO2, 37° C. for 30 minutes (FADS1) or 45 minutes (FADS2). Cells were then washed with DPBS and 50 μL of 2N NaOH were added to each well and incubated in a 65° C. oven for 1 hour for the saponification reaction. […] Samples were then subjected to LC-MS/MS detection for the following analytes for the FADS1 reaction: ^13C5-DGLA and ^13C5-AA or the following analytes for the FADS2 reaction: ^13C18-LA, ^13C18-GLA, ^13C18-DGLA and ^13C18-AA. Samples were injected onto a Poroshell 120 EC-C18 3.0×50 mm, 1.9 um id column (Agilent, Santa Clara, CA).

mouse FADS1 = biological target: T2, mouse FADS1 (Mus musculus, UniProt Q920L1); assay: Mouse FADS1 cell-based assay; conditions: in vitro mouse FADS1 activity assay
T2 sequence (Q920L1 1-447): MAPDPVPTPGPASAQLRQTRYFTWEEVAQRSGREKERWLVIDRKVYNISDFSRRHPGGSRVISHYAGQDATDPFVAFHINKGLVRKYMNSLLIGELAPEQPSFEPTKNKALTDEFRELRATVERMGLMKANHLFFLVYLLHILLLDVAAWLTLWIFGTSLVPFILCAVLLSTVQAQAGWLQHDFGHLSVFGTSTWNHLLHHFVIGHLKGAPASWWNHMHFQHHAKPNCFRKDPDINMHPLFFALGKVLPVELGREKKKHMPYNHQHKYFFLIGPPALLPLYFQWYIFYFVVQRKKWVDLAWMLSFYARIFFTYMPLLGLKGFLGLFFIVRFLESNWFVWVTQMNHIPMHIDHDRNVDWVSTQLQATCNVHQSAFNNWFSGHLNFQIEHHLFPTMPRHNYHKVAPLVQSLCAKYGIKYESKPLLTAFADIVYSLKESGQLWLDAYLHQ
Procedure: (§1) HEK 293 cells in Dulbecco's Modified Eagle's medium (DMEM), 10% fetal bovine serum (FBS), 1× penicillin-streptomycin-glutamine (PSG) were mixed with FADS1 BacMam or FADS2 BacMam reagents at multiplicity of infection (MOI) ratio of 25 and plated in a in 96-well poly-D-lysine-coated plate. Plates were incubated in a 37° C., 5% CO2 for 24 hours. Cells were washed with DPBS and cells were incubated with […] of compound dilution in DPBS at 5% CO2, 37° C. for 20 minutes. Ten L of the substrate, ^13C5-DGLA (FADS1), or 13C-LA (FADS2) diluted in DPBS were added to the cells and incubated at 5% CO2, 37° C. for 30 minutes (FADS1) or 45 minutes (FADS2). Cells were then washed with DPBS and 50 μL of 2N NaOH were added to each well and incubated in a 65° C. oven for 1 hour for the saponification reaction. After cooling to room temperature, 22 μl of formic acid was added followed by the addition of 113 μl of acetonitrile with 1.5 μM ALA-d14 as the internal standard. Samples were then subjected to LC-MS/MS detection for the following analytes for the FADS1 reaction: ^13C5-DGLA and ^13C5-AA or the following analytes for the FADS2 reaction: ^13C18-LA, ^13C18-GLA, ^13C18-DGLA and ^13C18-AA. […]
(§2) The analyte peak areas were quantified by using the Analyst software (SCIEX, Framingham, MA). The percent of substrate to product conversion relative to untreated control were calculated (percent of control [POC]). […]

human FADS2 = biological target: T3, human FADS2 (Homo sapiens, UniProt O95864); assay: In vitro FADS2 activity assay (HEK 293 cells with FADS2 BacMam, 13C-LA substrate); type: cell-based
T3 construct: expressed in transfected cells; host or cells: HEK 293 cells transduced with FADS2 BacMam (MOI 25)
T3 sequence (O95864 1-444): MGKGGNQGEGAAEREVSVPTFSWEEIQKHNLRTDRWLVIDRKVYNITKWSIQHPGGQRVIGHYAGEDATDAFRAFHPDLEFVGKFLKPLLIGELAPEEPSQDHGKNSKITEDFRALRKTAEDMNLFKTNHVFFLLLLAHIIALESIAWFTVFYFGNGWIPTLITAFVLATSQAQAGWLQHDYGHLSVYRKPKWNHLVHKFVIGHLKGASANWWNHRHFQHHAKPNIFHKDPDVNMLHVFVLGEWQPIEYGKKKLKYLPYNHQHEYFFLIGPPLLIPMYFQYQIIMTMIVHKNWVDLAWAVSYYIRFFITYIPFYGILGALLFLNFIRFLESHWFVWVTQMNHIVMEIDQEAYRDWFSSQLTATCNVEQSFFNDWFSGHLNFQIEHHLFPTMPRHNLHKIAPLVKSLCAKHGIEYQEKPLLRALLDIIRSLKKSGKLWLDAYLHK
Procedure: as §1, §2

FADS2 = biological target: T4, FADS2 (Mus musculus, UniProt Q9Z0R9); assay: FADS2 inhibition by SC-26196 in DIO mice, plasma PUFA ratios; type: in vivo
T4 construct: from tissue; host or cells: living DIO mice; plasma GLA/LA and AA/DGLA ratios
T4 sequence (Q9Z0R9 1-444): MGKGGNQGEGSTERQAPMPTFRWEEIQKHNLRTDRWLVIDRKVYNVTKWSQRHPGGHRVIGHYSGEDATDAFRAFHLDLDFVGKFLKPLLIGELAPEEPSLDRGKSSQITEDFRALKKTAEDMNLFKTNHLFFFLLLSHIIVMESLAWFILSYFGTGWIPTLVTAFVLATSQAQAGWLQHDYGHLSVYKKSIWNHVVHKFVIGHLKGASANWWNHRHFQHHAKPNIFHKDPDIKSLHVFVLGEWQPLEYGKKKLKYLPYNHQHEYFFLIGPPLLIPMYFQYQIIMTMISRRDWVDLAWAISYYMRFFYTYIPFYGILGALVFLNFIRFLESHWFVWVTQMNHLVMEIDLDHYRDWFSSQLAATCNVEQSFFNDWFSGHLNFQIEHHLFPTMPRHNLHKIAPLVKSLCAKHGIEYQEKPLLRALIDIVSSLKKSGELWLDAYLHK
Procedure: FIG. 12 One-way ANOVA with Dunnett's test for multiple comparisons, *P<0.05, **P<0.01, ***P<0.001, ****P<0.0001.
Ten microliter of plasma or PUFA standards diluted in surrogate matrix (60 g/l bovine serum albumin in Dulbecco's phosphate-buffered saline [DPBS]) were mixed with 10 μl of ALA-d14 as the internal stand in a 96-well plate. 100 μl of 2N NaOH was added to the mixture for subsequent saponification at 65° C. for 1 hour. The mixture was then acidified with 50 μl of formic acid followed by two consecutive 500 μl hexane extractions. The organic extracts from the two extractions were combined and the solvent was evaporated under nitrogen gas. Extracts were then resuspended in 250 μl of 90% methanol and analyzed by liquid chromatography with tandem mass spectrometry (LC-MS/MS) for the following PUFAs: LA, GLA, DGLA, and AA, with ALA-d14 as the internal standard. The PUFA peak areas were quantified by using the Analyst software (SCIEX, Framingham, MA).

T1 sequence (O60427 whole entry): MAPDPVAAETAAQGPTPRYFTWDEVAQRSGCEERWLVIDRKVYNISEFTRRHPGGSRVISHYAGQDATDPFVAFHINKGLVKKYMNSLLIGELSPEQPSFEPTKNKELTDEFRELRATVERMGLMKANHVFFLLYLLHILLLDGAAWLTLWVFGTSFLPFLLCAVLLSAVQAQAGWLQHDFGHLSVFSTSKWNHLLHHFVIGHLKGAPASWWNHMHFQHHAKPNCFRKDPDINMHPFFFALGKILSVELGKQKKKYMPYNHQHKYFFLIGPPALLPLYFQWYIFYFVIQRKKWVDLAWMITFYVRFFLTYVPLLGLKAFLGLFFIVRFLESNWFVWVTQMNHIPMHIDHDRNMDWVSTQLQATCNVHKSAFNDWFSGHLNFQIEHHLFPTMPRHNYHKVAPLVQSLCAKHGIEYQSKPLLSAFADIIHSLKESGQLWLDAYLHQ

effect on FADS1 activity (human FADS1): does not affect FADS1 activity
effect on FADS1 activity (mouse FADS1): does not affect FADS1 activity
effect on FADS2 activity (human FADS2): FADS2 specific inhibitor
plasma AA/DGLA ratio (FADS2): increased
plasma GLA/LA ratio (FADS2): affects
Compound: N#CC(CCCN1CCN(/N=C/c2cccnc2)CC1)(c1ccccc1)c1ccccc1 [SC-26196]

Reference: patent US20260183297A1, “SELECTION OF PATIENTS FOR THE TREATMENT OF FADS1-MEDIATED DISEASES OR DISORDERS USING FADS-1 INHIBITORS” (AMGEN INC., priority 2022, published 2026)
